Data: ChEMBL document CHEMBL1255246, “Systemic pharmacokinetics of rifaximin in volunteers with shigellosis” (Antimicrob Agents Chemother, 2008)

Tests used:
Type in all cases: ADME, organism-based
[1] = Drug level in healthy human feces at 400 mg single dose; details: faeces, read-out: Drug uptake
[2] = Tmax in Shigella flexneri challenged human at […], po administered every 8 hrs for three days measured after third dose; design: route oral; details: in vivo
[3] = AUC (0 to last) in Shigella flexneri challenged human at […], po administered every 8 hrs for three days measured after last dose; design: time 0 - last, route oral; details: plasma
[4] = Oral bioavailability in human at 200 mg three times a day for 3 days; details: in vivo
[5] = Cmax in Shigella flexneri challenged human at […], po administered every 8 hrs for three days measured after last dose; design: route oral; details: in vivo
[6] = Cmax in Shigella flexneri challenged human at […], po administered every 8 hrs for three days measured after third dose; design: route oral; details: in vivo
[7] = AUC (0 to last) in Shigella flexneri challenged human at […], po administered every 8 hrs for three days measured after third dose; design: route oral, time 0 - last; details: plasma
[8] = Tmax in Shigella flexneri challenged human at […], po administered every 8 hrs for three days measured after last dose; design: route oral; details: in vivo
[9] = Drug level in healthy human urine at 400 mg single dose; details: read-out: Drug uptake

CO[C@H]1/C=C/O[C@@]2(C)Oc3c(C)c(O)c4c(O)c(c5c(nc6cc(C)ccn65)c4c3C2=O)NC(=O)/C(C)=C\C=C\[C@H](C)[C@H](O)[C@@H](C)[C@@H](O)[C@@H](C)[C@H](OC(C)=O)[C@@H]1C [RIFAXIMIN] showed a dose excreted [1] of 97%, a Tmax [2] of 2.77 h and an AUC(0-t) at 8 h [3] of 7.83 ng·h/mL. The bioavailability [4] was under 0.4%, the Cmax [5] was 1.23 ng/mL and the Cmax [6] was 1.63 ng/mL. The AUC(0-t) at 8 h [7] was 6.95 ng·h/mL, the Tmax [8] was 2.11 h and the dose excreted [9] was 0.32%.
